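A five-concentration, 48-hour dose response in 96-well plates underlies each endpoint, interpolated linearly between surrounding concentrations. Here, GI50 denotes the concentration required for 50% inhibition of growth. TGI is the concentration that stops growth completely.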
Legend:
Test in all cases: NCI tumour cell line growth inhibition, 48 h
[1] = tested on: TK-10 renal
[2] = tested on: SF-295 CNS
[3] = tested on: 786-0 renal
[4] = tested on: SK-MEL-2 melanoma
[5] = tested on: SNB-75 CNS
[6] = tested on: HOP-92 NSCLC
[7] = tested on: HL-60(TB) leukemia
[8] = tested on: HOP-62 NSCLC
[9] = tested on: NCI/ADR-RES ovarian
[10] = tested on: MDA-MB-231 breast

Structure (SMILES)	TGI [1]	TGI [2]	TGI [3]	TGI [4]	TGI [5]	TGI [6]	TGI [7]	TGI [8]	GI50 [9]	TGI [9]	GI50 [3]	GI50 [4]	GI50 [10]	TGI [10]	GI50 [6]	GI50 [1]	GI50 [2]	GI50 [5]	GI50 [8]	GI50 [7]
Cc1ccc(NC(=O)C2C(=O)N(c3ccc(C)c(C)c3)C(=O)/C2=N\NC(N)=S)cc1C (stereo not drawn)	> 100 µM	> 100 µM	> 100 µM	> 100 µM	> 100 µM	> 100 µM	> 100 µM	–	–	–	–	–	–	–	–	–	–	–	–	–
BrC1=CC=C2NCCCCCCN=C3C=CC(Br)=CC=C3NCCCCCCN=C2C=C1	> 25.5 µM	> 25.5 µM	> 25.5 µM	> 25.5 µM	> 25.5 µM	> 25.5 µM	> 25.5 µM	> 25.5 µM	–	–	–	–	–	–	–	–	–	–	–	–
c1cc(-c2cn[nH]c2)cc(-c2cn[nH]c2)c1	> 100 µM	> 100 µM	> 100 µM	> 100 µM	42.7 µM	> 100 µM	66.6 µM	> 100 µM	–	–	–	–	–	–	–	–	–	–	–	–
Cc1[nH]nc2c1C(=O)C=C(N(CCO)c1ccccc1)C2=O	> 100 µM	> 100 µM	> 100 µM	–	> 100 µM	> 100 µM	> 100 µM	–	–	–	–	–	–	–	–	–	–	–	–	–
Cc1nc(Nc2ccccc2)sc1C(=O)NNc1ccc([N+](=O)[O-])cc1[N+](=O)[O-]	> 100 µM	> 100 µM	> 100 µM	> 100 µM	95.3 µM	–	41.2 µM	> 100 µM	–	–	–	–	–	–	–	–	–	–	–	–
c1ccc2cc(Cn3c[n+](Cc4ccc5ccccc5c4)c4ccccc43)ccc2c1	–	–	3.09 µM	3.14 µM	–	1.57 µM	–	–	16.6 µM	61.8 µM	1.52 µM	1.64 µM	1.1 µM	2.47 µM	0.192 µM	–	–	–	–	–
O=[N+]([O-])[O-].O=[N+]([O-])[O-].[Au].[Au].c1ccc([P-]c2ccccc2)cc1.c1ccc([P-]c2ccccc2)cc1	53.6 µM	> 100 µM	58.7 µM	58.1 µM	> 100 µM	51.5 µM	> 100 µM	> 100 µM	–	–	19.2 µM	31.1 µM	–	–	26.6 µM	23.3 µM	> 100 µM	51.4 µM	> 100 µM	12 µM
Cc1cc(C)n(C(=O)c2nn(-c3ccc(Cl)cc3)cc2O)n1	> 100 µM	6.73 µM	> 100 µM	–	73.1 µM	> 100 µM	> 100 µM	79.4 µM	4.42 µM	> 100 µM	9.64 µM	–	8.8 µM	> 100 µM	4.52 µM	4.71 µM	1.81 µM	3.52 µM	5.21 µM	39.6 µM
Cn1c2ccccc2c(=O)c2c([N+](=O)[O-])ccc(NCCN)c21	28.5 µM	25 µM	20.6 µM	36 µM	26.8 µM	20.2 µM	22.9 µM	30.7 µM	–	–	–	–	–	–	–	–	–	–	–	–
O=C(O)/C(=C\c1ccccc1Cl)S(=O)(=O)c1ccccc1	> 100 µM	> 100 µM	> 100 µM	> 100 µM	> 100 µM	> 100 µM	> 100 µM	> 100 µM	–	–	–	–	–	–	–	–	–	–	–	–
COc1cc2c([C@@H](OC(=O)c3ccccc3)c3ccc4c(c3)OCO4)nccc2c(OC)c1OC	> 100 µM	> 100 µM	> 100 µM	–	> 100 µM	> 100 µM	92.9 µM	> 100 µM	–	–	–	–	–	–	–	–	–	–	–	–

Reference: PubChem BioAssay (NCI)
